# Values of other authors in US20250074868A1, “POLYHYDROXYLATED PHOTOINITIATORS” (Arkema France, priority 2021, published 2025).
structure (smiles),measurement,value
CC(C)(O)C(=O)c1ccc(OCCO)cc1 [SpeedCure 2959],water solubility,0.5 wt %
